The target in assay [1] is T1, 5-HT3 Receptor (Rattus norvegicus, UniProt P35563).
T1 construct: Male Wistar rats (15-200 g) were decapitated, the entorhinal cortex removed, weighed and homogenized; from tissue; host or cells: entorhinal cortex membranes of male Wistar rats
T1 sequence (P35563 24-483): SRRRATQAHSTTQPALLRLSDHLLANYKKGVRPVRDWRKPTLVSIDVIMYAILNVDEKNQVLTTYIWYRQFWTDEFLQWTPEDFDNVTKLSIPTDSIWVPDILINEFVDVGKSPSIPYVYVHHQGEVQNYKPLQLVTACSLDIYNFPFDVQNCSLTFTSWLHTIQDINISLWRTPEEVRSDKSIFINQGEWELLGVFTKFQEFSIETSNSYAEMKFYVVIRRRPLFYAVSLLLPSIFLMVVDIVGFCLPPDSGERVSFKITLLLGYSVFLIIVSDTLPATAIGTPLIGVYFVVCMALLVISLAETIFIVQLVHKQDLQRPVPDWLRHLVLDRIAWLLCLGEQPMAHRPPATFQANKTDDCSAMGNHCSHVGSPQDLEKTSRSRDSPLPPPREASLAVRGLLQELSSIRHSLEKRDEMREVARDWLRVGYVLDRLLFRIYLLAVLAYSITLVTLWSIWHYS
The assay is described as follows: ^3 H-GR 65630 Binding to Rat Entorhinal Cortex Membranes (affinity for 5-HT3 receptor). On the set-up: species or system Male Wistar rat. The settings on record: 0.4 nM [^3 H]-GR65630, pH 7.4, 30 minutes at 37° C., read-out: IC50, Affinity for 5-HT3 Receptor-Displacement of ^3 H-GR 65630. The procedure:
In accordance with the above-discussed assay, a 0.05M of Krebs-Hepes buffer, pH 7.4 was prepared as follows:
q.s. to 1 liter with distilled H2 O, bring pH up to 7.4 (at 4° C.) with 5N NaOH
[^3 H]-GR65630 (87.0 Ci/mmol) was obtained from New England Nuclear.
GR38032F was obtained from Research Biochemical Inc. GR38032F was made up to a concentration of 500 μM in Krebs-Hepes buffer. 50 μl of […] were added to each of 3 tubes for determination of nonspecific binding (yields a final concentration of 100 μM in the 250 μl assay).
For most assays, a 50 μM stock solution was prepared in a suitable solvent and serially diluted with Krebs-Hepes buffer such that when 50 μl of drug is combined with the total 250 μl assay, a final concentration from 10^-5 to 10^-8 M was attained.
During tissue preparation, Male Wistar rats ([…]) were decapitated, the entorhinal cortex removed, weighed and homogenized in 10 volumes of ice cold 0.05M Krebs-Hepes buffer, pH 7.4. The homogenate is centrifuged at 48,000 g for 15 minutes at 4° C. The resulting pellet was rehomogenized in fresh Krebs-Hepes buffer and recentrifuged at 48,000 g for 15 minutes at 4° C. The final pellet was resuspended in the original volume of ice-cold Krebs-Hepes buffer. This yielded a final tissue concentration of 1.2 to 1.6 mg/ml with the addition of 100 μl to the assay.
In conducting the assay, the following volumes were utilized:
Sample tubes were kept on ice for additions, then vortexed and incubated with continuous shaking for 30 minutes at 37° C. At the end of the incubation period, the incubate is diluted with 5 ml of ice-cold Krebs-Hepes buffer and immediately vacuum filtered through Whatman GF/B filters, followed by two 5 ml washes with ice-cold Krebes-Hepes buffer. The filters are dried and counted in 10 ml of liquid scintillation cocktail. […] IC50 values were derived from computer-derived log-probit analysis.

Assay [2] has as its system 5-HT3. The assay is described as follows: 5 HT3 antagonist effects in the Bezold-Jarisch assay (reflex bradycardia, anesthetized Long-Evans rat). The settings on record: ip, mean ± SEM, 2-3 rats/dose. The assay is classed as in vivo. An excerpt: Measurement of 5 HT3 Antagonist Effects in the Bezold-Jarisch Assay
This assay evaluates the effect of these compounds as 5-HT3 antagonists. They were examined in this assay on the coronary chemoreflex (Bezold-Jarisch) initiated by […] in vivo and characterized by leading inhibition of sympathetic outflow and increased activity of the cardiac vagus, leading to profound bradycardia and hypotension. The values obtained allow for continuous monitoring of arterial pressure and heart rate responses by these compounds over an extended period of time to determine their effecicy for 5 HT3 antagonism.
The catheters were prepared from Tygon tubing (45 cm length, […], ID) bonded to Teflon tubing (0.38 mm, ID). The mechanical bonding was achieved by insertion of the Teflon tubing (5 mm) into the dilated (ethylene dichloride, 3-4 min.) tip of the Tygon tubing. The junction was then sealed with vinyl glue, the catheters were soaked in cold sterilization solution (Amerse instrument germicide) and flushed thoroughly with saline prior to implantation.
Long Evans rats were anesthetized with sodium pentobarbital (50 mg/kg, ip). […] The catheters were then sutured to the underlying muscle and the free ends were passed subcutaneously and exteriorized through an incision on the top of the skull. The catheters were then secured to the skin with sutures, nitrofurazone powder was dusted over the area of the incision and the incision was closed using 3-O silk sutures. The catheters were flushed with saline and sealed with metal obturators. Patentcy of the two catheters was maintained by daily flushing with hepranized saline (0.2 ml of 100 U/ml). The rats were given 48 hours recovery prior to obtaining cardiovascular data.
In the anesthetized rat model the catheters were not exteriorized, data was collected acutely under the influence of general anesthesia.
The baseline data Arterial Blood Pressure (mm Hg, systolic/diastolic) and Heart Rate (beats/min) were recorded and the rats were injected with 5-HT (3-7.5 ug/kg, iv). The individual response to the 5-HT intervention was determined and the compound was then administered singlely or in an ascending dose range. The rats were challenged with 5-HT again at intervals postdosing and the peak response was recorded.

These results are taken from patent US5880121A, “4,5-dihydronaphth (1,2-c) isoxazoles and derivatives thereof” (Hoechst Marion Roussel Inc., priority 1996, dated 1999).

For orientation: IC50 means the concentration at which inhibition is half-maximal.

As to `OCCN1CCN(c2onc3c2CCc2ccccc2-3)CC1` [Ex. 3, 3-(4-(2-Hydroxyethyl)-1-piperazinyl)-4,5-dihydronaphth[1,2-c]isoxazole], in assay [1], the IC50 is 868 nM.
With `c1ccc2c(c1)CCc1c-2noc1N1CCCNCC1` [Ex. 4, 3-(1-Homopiperazinyl)-4,5-dihydronaphth[1,2-c]isoxazole], the IC50 in assay [1] was 83 nM. Moreover, the entries for the “% Inhibition of Bezold-Jarisch Reflex” value in assay [2] (0.03 mg/kg), in assay [2] (0.05 mg/kg) and in assay [2] (0.10 mg/kg) were 58.6 ± 16.4%, 83.3 ± 8.2% and 93.0 ± 1.0%, respectively.
In the case of `c1ccc2c(c1)CCc1c-2noc1N1CCNCC1` [Ex. 5, 3-(1-Piperazinyl)-4,5-dihydronaphth[1,2-c]isoxazole], the IC50 in assay [1] came to 56 nM. Further, the “% Inhibition of Bezold-Jarisch Reflex” value in assay [2] (1.0 mg/kg) was determined as 55.6 ± 9.7%; in assay [2] (3.0 mg/kg) it was 89.3 ± 2.9%.
Consider `Cc1nccn1CC1CCc2c(c3ccccc3n2C)C1=O` (stereo not shown) [Ondansetron, reference compound], for which the “% Inhibition of Bezold-Jarisch Reflex” value is 57.3 ± 9.7% in assay [2] (3.0 mg/kg) and 94.6 ± 2.7% in assay [2] (10.0 mg/kg).
